Experimental data published in patent US5629285A, “Inhibitors of TNF-α secretion” (Immunex Corporation, priority 1996, dated 1997).
Values belong to the compound of their own block, whether it stands above or below them.

Tests used:
[1] = molecular target: purified TACE (Homo sapiens, UniProt P78536); test: Serum stability in normal mouse serum, read out as inhibitory efficacy against purified TACE; assay type: in vitro ADME; conditions: 50 μM in normal mouse serum, 37° C., after 40 minutes
Method: Each of Compound 1 and Compound A was diluted to 50 μM in normal mouse serum and incubated at 37° C. At various times, aliquots were withdrawn, diluted 100-fold into ice-cold PBS, and tested for inhibitory, efficacy against purified TACE.

[2] = test system: serum TNF-α; test: In vivo inhibition of TACE: LPS-induced serum TNF levels, 500 μg compound s.c.; set-up: species or system Balb/c mice; conditions: for Serum TNF-α level: 500 μg s.c. with 400 μg LPS i.v., serum 2 hours after LPS, pooled from two mice, Saline/DMSO control 157
Method: Female Balb/c mice (18-20 g) were injected i.v. with 400 μg of LPS. Simultaneously, the mice were injected subcutaneously with 500 μg of Compound A or Compound 1 in 0.5 ml of saline containing 0.02% DMSO. Control mice received LPS intravenously and saline/DMSO subcutaneously. Two hours following the LPS injection, serum was obtained and pooled from two mice in each treatment group.
In a similar manner to the procedure described above, mice were injected i.v. with 400 μg LPS. Simultaneously, the mice were injected subcutaneously with 500 μg Compound 1 in 0.5 ml saline containing 0.02% DMSO. Two hours later, serum was obtained and pooled. TNF-α levels were determined by ELISA.

[3] = test system: serum TNF-α; test: In vivo inhibition of TACE: LPS-induced serum TNF levels, 250 μg compound s.c.; set-up: species or system Balb/c mice; conditions: 2 hours; for serum TNF-α, mean optical density (OD) in the ELISA: 250 μg s.c. in saline/DMSO with 450 μg LPS i.v., three mice, LPS + Saline + DMSO 0.268 ± 0.040, background OD 0.162±0.003; for effect on serum TNF-α levels in LPS-stimulated mice: 250 μg s.c., 450 μg LPS i.v.
Method: Female Balb/c mice (18-20 g) were injected i.v. with 450 μg of LPS. Simultaneously, the mice were injected subcutaneously with 250 μg of Compound A or Compound 1 in 0.25 ml of saline containing 0.02% DMSO. Control mice received LPS intravenously and saline/DMSO subcutaneously. Two hours following the LPS injection, serum was obtained from three mice in each treatment group. TNF-α levels were determined by ELISA. The results are expressed as the mean optical density (OD) obtained in the ELISA from each treatment group, and are shown in Table V. The background OD of the control sample was 0.162±0.003.

[4] = test system: IFN-γ secretion; test: IFN-γ production by anti-CD3 + PMA stimulated peripheral blood T-cells; assay type: cell-based, human
Method: [The source words this procedure for another target and reports this target under the same test.] (§1) Human peripheral blood T-cells were purified from peripheral blood mononuclear cells by rosetting with 2-aminoethylisothiouronium bromide hydrobromide-treated sheep erythrocytes. After hypotonic lysis of sheep erythrocytes, monocytes were depleted by plastic adherence for one hour at 37° C. The peripheral […] T-cells were stimulated with anti-CD3 antibody (OKT3) which was immobilized on the culture wells at 10 μg/ml in PBS plus […] of the phorbol ester, PMA. Culture medium comprised RPMI 1640 medium containing 10% fetal bovine serum, 50 U/ml penicillin, and 50 μg/ml streptomycin. The stimulation was performed in the presence or absence of the inhibitor Compound 1 (200 μM), and TNF-α in the medium was assayed by ELISA.

[5] = test system: TNF-α secretion; test: Inhibition of TNF-α release by anti-CD3 + PMA stimulated peripheral blood T-cells (ELISA); assay type: cell-based, human; set-up: key to TNF-α (pg/ml), 3 Hrs.: .dagger.: undetectable
Method: as §1

[6] = test system: 41BBL; test: Cell surface 41BBL on PMA + ionomycin-stimulated human T-cell clone PL-1 (41BB:Fc staining, FACS); assay type: cell-based
Method: (§2) Detection of cell surface TNF-α was performed by staining with an Fc fusion protein consisting of an Fc portion of a human IgG1 molecule (IgGFc) coupled with an extracellular domain of TNF receptor (p80). Detection of cell surface ligands for 41BB and CD40 was performed by staining with analogous Fc fusion proteins consisting of IgGFc and extracellular domains of 41BB and CD40, respectively. […] TNFR:Fc and IL-4R:Fc fusion proteins are described in EP 0 464 533, incorporated herein by reference. The same general procedures used to construct the TNFR:Fc and IL-4R:Fc fusion molecules were utilized in the construction of the 41BB:Fc and CD40:Fc molecules. Fc fusion proteins bound to their respective cell-surface ligands were then detected with a biotinylated anti-human IgG1 followed by streptavidin-phycoerythrin. The intensity of staining was measured by a FACS (fluorescence activated cell sorting) scan flow cytometer.

[7] = test system: TNF-β secretion; test: TNF-β production by anti-CD3 + PMA stimulated peripheral blood T-cells; assay type: cell-based, human; set-up: key to TNF-β (pg/ml), 3 Hrs.: .dagger.: undetectable
Method: [The source words this procedure for another target and reports this target under the same test.] as §1

[8] = test system: CD40L; test: Cell surface CD40L on PMA + ionomycin-stimulated human T-cell clone PL-1 (CD40:Fc staining, FACS); assay type: cell-based
Method: as §2

[9] = test system: cell surface TNF-α; test: Cell surface TNF-α on PMA + ionomycin-stimulated human T-cell clone PL-1 (TNFR:Fc staining, FACS); assay type: cell-based
Method: as §2

[10] = test system: IL-4; test: Cell surface IL-4 on PMA + ionomycin-stimulated human T-cell clone PL-1 (IL-4R:Fc staining, negative control); assay type: cell-based; conditions: + Compound 1 (10 without)
Method: as §2

[11] = with Compound 1 200 μM, 24 Hrs.
[12] = with Compound 1 200 μM, 48 Hrs.

purified TACE, sequence (P78536 215-824): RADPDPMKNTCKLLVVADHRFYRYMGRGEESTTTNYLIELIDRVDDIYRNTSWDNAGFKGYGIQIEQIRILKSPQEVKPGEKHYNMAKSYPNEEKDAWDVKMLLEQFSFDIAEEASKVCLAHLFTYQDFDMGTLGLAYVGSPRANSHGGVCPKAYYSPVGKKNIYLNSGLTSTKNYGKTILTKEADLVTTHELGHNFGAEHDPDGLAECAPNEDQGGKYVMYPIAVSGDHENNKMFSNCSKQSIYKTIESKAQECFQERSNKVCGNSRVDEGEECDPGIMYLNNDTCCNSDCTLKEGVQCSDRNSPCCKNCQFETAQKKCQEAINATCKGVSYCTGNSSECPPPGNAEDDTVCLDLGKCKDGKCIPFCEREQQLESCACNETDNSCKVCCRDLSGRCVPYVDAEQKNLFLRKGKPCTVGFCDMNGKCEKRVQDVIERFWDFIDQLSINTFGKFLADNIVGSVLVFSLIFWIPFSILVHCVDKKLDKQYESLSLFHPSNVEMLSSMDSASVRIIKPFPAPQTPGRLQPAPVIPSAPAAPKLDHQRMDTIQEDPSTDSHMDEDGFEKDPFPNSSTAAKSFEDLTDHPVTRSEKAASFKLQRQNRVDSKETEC

- decrease in inhibitory effect against purified TACE, as loss in concentration of the compound [1]: 3-4 fold
Structure (SMILES): CC(C)CC(CC(=O)NO)C(=O)N[C@@H](Cc1ccc2ccccc2c1)C(=O)N[C@@H](C)C(N)=O (stereo partly drawn) [Compound A, N-{D,L-2-(hydroxyaminocarbonyl)methyl-4-methylpentanoyl}L-3-(2'naphthyl)-a lanyl-L-alanine amide, reference compound]
- Serum TNF-α level [2]: 65 pg/mL
- reduction of serum TNF-α levels as compared to the saline/DMSO control ([2]; 500 μg s.c., 400 μg LPS i.v., 2 hours): approximately 60%
- serum TNF-α, mean optical density (OD) in the ELISA [3]: 0.299 ± 0.023 OD
- effect on serum TNF-α levels in LPS-stimulated mice [3]: no effect

- decrease in inhibitory effect against purified TACE, as loss in concentration of the compound [1]: no decrease
Structure (SMILES): CC(C)CC(CC(=O)NO)C(=O)N[C@@H](Cc1ccc2ccccc2c1)C(=O)N[C@@H](C)C(=O)NCCN (stereo partly drawn) [Compound 1, N-{D,L-2-(hydroxyaminocarbonyl)methyl-4-methylpentanoyl}-L-3-(2'-naphthyl) alanyl-L-alanine, 2-aminoethyl amide]
- inhibitory effect on the release of interferon-γ ([4]; 200 μM, 24 and 48 hours): no inhibitory effect
- IFN-γ (ELISA OD), 3 Hrs. ([4]; with Compound 1 200 μM, 3 Hrs.): 0.2 ELISA OD
- IFN-γ (ELISA OD), 24 Hrs. [4, 11]: 0.9 ELISA OD
- IFN-γ (ELISA OD), 48 Hrs. [4, 12]: 1.08 ELISA OD
- inhibition of TNF-α release ([5]; 200 μM, 48 hours): 63%
- TNF-α in the medium ([5]; 200 μM, after 3 hours, 100 pg/ml without compound): no detectable
- TNF-α (pg/ml), 3 Hrs. ([5]; with Compound 1 200 μM, medium of stimulated peripheral blood T cells, 3 Hrs.): .dagger.
- TNF-α (pg/ml), 24 Hrs. ([5]; with Compound 1 200 μM, medium of stimulated peripheral blood T cells, 24 Hrs.): 100 pg/mL
- TNF-α (pg/ml), 48 Hrs. ([5]; with Compound 1 200 μM, medium of stimulated peripheral blood T cells, 48 Hrs.): 300 pg/mL
- cell surface 41BBL (MFI) ([6]; 4h after stimulation, + Compound 1 (428 without)): 344 MFI, arbitrary units
- cell surface 41BBL (MFI) ([6]; 18h after stimulation, + Compound 1 (5 without)): 9 MFI, arbitrary units
- enhancement of 41BB:Fc binding ([6]; 18 hours of stimulation): approximately 2 fold
- increase on 41BB:Fc binding ([6]; four hours of stimulation): no increase
- Serum TNF-α level [2]: undetectable
- reduction of serum TNF-α levels in a murine model of LPS-induced sepsis syndrome ([2]; 25 mg/kg, from Tables III and IV): at least 80%
- LPS-induced serum TNF level ([2]; Experiment No. 1, 500 μg s.c., 400 μg LPS i.v., 2 hours, LPS only 1696, LPS + Saline 1268): 301 pg/mL
- LPS-induced serum TNF level ([2]; Experiment No. 2, 500 μg s.c., 400 μg LPS i.v., 2 hours, LPS only 2527, LPS + Saline 1768): 269 pg/mL
- LPS-induced serum TNF level ([2]; Experiment No. 3, 500 μg s.c., 400 μg LPS i.v., 2 hours, LPS only 1833, LPS + Saline 1732): 281 pg/mL
- reduction of serum TNF-α levels as compared to LPS only ([2]; experiment 1, 500 μg s.c.): 82%
- reduction of serum TNF-α levels as compared to LPS+saline ([2]; experiment 1, 500 μg s.c.): 76%
- reduction of serum TNF-α levels as compared to LPS only ([2]; experiment 2, 500 μg s.c.): 89%
- reduction of serum TNF-α levels as compared to LPS+saline ([2]; experiment 2, 500 μg s.c.): 85%
- reduction of serum TNF-α levels as compared to LPS only ([2]; experiment 3, 500 μg s.c.): 85%
- reduction of serum TNF-α levels as compared to LPS+saline ([2]; experiment 3, 500 μg s.c.): 84%
- overall reduction of serum TNF-α levels as compared to LPS only ([2]; experiments 1-3, 500 μg s.c.): 85.4±2.98%
- inhibitory effect on the release of TNF-β ([7]; 200 μM, 24 and 48 hours): no inhibitory effect
- TNF-β (pg/ml), 3 Hrs. ([7]; with Compound 1 200 μM, 3 Hrs.): .dagger.
- TNF-β (pg/ml), 24 Hrs. [7, 11]: 160 pg/mL
- TNF-β (pg/ml), 48 Hrs. [7, 12]: 1050 pg/mL
- cell surface CD40L (MFI) ([8]; 4h after stimulation, + Compound 1 (107 without)): 107 MFI, arbitrary units
- cell surface CD40L (MFI) ([8]; 18h after stimulation, + Compound 1 (19 without)): 46 MFI, arbitrary units
- enhancement of CD40:Fc binding ([8]; 18 hours of stimulation): approximately 2 fold
- increase on CD40:Fc binding ([8]; four hours of stimulation): no increase
- cell surface TNF-α (MFI) ([9]; 4h after stimulation, + Compound 1 (83 without)): 3040 MFI, arbitrary units
- cell surface TNF-α (MFI) ([9]; 18h after stimulation, + Compound 1 (7 without)): 616 MFI, arbitrary units
- increase in TNFR:Fc binding ([9]; 18 hours of stimulation, presence vs absence of Compound 1): 100 fold
- cell surface IL-4 (MFI) ([10]; 4h after stimulation): 10 MFI, arbitrary units
- cell surface IL-4 (MFI) ([10]; 18h after stimulation): 10 MFI, arbitrary units
- serum TNF-α, mean optical density (OD) in the ELISA [3]: 0.147 ± 0.004 OD
- effect on serum TNF-α levels in LPS-stimulated mice [3]: complete inhibition
